In patent US8959984B2, “Proteome-wide quantification of small molecule binding to cellular target proteins” (priority 2007, dated 2015):
Values joined by “and” are separate entries in the source; they are usually repeats but may differ in a detail not shown here. Equal values may be shown once.

Assays:
Assay in all cases: binding to AX14596 beads (HeLa lysate, SILAC MS)
ACAD10 = target: T1, ACAD10 (Homo sapiens, UniProt Q6JQN1)
T1 sequence (Q6JQN1 1-1059): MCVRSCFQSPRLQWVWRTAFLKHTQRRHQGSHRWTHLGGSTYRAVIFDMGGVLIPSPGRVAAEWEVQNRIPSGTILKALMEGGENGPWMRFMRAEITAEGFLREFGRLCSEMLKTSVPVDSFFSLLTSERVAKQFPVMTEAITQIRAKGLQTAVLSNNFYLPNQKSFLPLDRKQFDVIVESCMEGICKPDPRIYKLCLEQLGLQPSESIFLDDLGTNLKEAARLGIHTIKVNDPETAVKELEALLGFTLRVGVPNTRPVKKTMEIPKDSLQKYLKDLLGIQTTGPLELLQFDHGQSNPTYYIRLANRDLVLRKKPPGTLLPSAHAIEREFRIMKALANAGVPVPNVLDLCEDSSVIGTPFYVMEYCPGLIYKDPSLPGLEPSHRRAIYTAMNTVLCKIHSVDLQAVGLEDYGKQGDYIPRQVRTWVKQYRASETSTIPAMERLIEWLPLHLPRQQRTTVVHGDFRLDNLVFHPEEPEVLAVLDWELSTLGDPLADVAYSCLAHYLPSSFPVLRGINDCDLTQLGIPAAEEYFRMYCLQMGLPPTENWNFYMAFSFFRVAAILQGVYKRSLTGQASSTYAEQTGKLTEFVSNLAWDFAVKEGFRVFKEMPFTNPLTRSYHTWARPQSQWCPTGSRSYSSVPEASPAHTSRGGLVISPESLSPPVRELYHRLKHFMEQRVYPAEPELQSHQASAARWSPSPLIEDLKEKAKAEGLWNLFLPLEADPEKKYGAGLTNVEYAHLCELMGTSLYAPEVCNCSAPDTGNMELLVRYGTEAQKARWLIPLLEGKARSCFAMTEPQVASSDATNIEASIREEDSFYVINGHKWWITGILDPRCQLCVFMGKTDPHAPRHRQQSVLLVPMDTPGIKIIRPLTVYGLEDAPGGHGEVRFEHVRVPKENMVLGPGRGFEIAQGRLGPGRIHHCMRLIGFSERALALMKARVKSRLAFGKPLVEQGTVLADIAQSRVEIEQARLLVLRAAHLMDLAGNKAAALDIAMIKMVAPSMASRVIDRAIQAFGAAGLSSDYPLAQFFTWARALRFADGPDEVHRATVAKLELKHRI

PKD3 (PRKD3) = target: T2, PKD3 (PRKD3) (Homo sapiens, UniProt O94806)
T2 construct: endogenous in cells; host or cells: HeLa S3
T2 sequence (O94806 whole entry): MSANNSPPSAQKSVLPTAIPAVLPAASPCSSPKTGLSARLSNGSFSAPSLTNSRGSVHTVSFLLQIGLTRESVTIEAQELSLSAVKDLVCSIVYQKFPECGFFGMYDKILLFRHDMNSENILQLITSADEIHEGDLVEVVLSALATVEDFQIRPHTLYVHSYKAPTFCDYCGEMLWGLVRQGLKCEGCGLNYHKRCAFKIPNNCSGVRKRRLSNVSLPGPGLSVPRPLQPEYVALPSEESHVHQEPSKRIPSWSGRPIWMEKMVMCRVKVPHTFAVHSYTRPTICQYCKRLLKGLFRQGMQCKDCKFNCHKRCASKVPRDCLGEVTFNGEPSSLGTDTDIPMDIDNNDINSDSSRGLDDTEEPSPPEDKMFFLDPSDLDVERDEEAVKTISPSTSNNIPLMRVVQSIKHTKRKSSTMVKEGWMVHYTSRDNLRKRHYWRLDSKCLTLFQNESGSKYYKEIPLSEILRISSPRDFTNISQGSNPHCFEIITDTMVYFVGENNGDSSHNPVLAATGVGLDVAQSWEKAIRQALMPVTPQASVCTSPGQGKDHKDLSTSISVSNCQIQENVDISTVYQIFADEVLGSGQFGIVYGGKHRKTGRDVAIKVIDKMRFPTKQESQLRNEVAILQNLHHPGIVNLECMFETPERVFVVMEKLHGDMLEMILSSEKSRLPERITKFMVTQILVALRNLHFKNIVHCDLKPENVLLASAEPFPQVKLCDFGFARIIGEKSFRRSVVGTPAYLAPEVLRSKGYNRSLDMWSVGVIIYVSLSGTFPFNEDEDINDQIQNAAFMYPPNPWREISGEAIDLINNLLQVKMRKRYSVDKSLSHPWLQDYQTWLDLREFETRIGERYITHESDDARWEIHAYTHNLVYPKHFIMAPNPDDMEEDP

BRK (PTK6) = target: T3, BRK (PTK6) (Homo sapiens, UniProt Q13882)
T3 construct: endogenous in cells; host or cells: HeLa S3
T3 sequence (Q13882 whole entry): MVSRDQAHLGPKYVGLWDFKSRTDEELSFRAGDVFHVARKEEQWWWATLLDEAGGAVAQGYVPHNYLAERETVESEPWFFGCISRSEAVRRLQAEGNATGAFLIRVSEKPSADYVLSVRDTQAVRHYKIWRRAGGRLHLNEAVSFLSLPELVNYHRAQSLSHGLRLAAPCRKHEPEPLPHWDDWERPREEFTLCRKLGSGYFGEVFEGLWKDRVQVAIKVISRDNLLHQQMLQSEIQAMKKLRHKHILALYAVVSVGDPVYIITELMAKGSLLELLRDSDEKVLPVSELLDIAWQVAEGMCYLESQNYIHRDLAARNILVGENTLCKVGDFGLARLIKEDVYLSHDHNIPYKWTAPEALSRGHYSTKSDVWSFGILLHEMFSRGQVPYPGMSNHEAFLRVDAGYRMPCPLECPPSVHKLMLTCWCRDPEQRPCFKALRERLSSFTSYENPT

LYN = LYN (Homo sapiens, UniProt P07948)
Sequence of LYN (P07948 whole entry): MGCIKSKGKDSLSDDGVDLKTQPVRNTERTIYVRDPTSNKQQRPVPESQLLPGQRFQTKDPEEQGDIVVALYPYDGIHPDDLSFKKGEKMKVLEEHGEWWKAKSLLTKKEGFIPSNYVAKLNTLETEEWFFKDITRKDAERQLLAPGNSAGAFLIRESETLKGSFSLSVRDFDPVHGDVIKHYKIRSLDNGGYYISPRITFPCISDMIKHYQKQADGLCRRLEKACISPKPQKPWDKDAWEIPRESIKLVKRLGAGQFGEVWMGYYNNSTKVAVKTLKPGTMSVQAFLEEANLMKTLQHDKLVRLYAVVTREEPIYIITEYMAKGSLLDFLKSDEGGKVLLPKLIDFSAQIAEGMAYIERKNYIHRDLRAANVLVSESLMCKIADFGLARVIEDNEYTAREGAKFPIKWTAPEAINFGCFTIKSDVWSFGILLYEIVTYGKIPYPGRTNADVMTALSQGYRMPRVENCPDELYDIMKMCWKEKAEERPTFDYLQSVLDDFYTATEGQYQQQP

## COc1cc2ncnc(Nc3ccc(F)c(Cl)c3)c2cc1OCCCN [AX14596]
ACAD10
  Ki: 108 µM
  r (3 mg/1 mg lysate): 8.45
  r (5 h/2.5 h inc. time): 0.48
  rAVERAGE (2. inc/1. inc): 0.52
  rAVERAGE (control/1. inc): 0.08
PKD3 (PRKD3)
  Ki: 1510 µM
  r (3 mg/1 mg lysate): 2.49
  r (5 h/2.5 h inc. time): 1.05
  rAVERAGE (2. inc/1. inc): 0.94
  rAVERAGE (control/1. inc): 0.08
BRK (PTK6)
  Ki: 45 µM and 45.4 µM
  r (3 mg/1 mg lysate): 2.56
  r (5 h/2.5 h inc. time): 0.96
  rAVERAGE (2. inc/1. inc): 0.31
  rAVERAGE (control/1. inc): 0.02
BRK (PTK6); bound to AX14596 beads
  % BOUND: 69%
LYN
  Ki: 195 µM
  r (3 mg/1 mg lysate): 2.14
  r (5 h/2.5 h inc. time): 0.98
  rAVERAGE (2. inc/1. inc): 0.66
  rAVERAGE (control/1. inc): 0.07
LYN; bound to AX14596 beads
  % BOUND: 34%
